Data as given in ChEMBL document CHEMBL4321854, “Discovery of a First-in-Class Mitogen-Activated Protein Kinase Kinase 1/2 Degrader” (J Med Chem, 2019).
Activity calls are given as the source filed them. The calls are words filed in the database; no cut-off is given here.

Tests used:
[1] = biological target: T1, von Hippel-Lindau disease tumor suppressor/Dual specificity mitogen-activated protein kinase kinase 2/Dual specificity mitogen-activated protein kinase kinase 1 (Homo sapiens) (UniProt P36507+Q02750+P40337); test: Protac activity against VHL/MEK1/2 in human SK-MEL-28 cells harboring with BRAF V600E variant assessed as phosphorylation of ERK at T202/Y204 residues at 0.3 uM pretreated with proteasome inhibitor, MG-132 for 2 hrs followed by incubation with compound for 10 hrs by Western blot analysis; type: cell-based
T1 sequence (P36507 whole entry, looked up): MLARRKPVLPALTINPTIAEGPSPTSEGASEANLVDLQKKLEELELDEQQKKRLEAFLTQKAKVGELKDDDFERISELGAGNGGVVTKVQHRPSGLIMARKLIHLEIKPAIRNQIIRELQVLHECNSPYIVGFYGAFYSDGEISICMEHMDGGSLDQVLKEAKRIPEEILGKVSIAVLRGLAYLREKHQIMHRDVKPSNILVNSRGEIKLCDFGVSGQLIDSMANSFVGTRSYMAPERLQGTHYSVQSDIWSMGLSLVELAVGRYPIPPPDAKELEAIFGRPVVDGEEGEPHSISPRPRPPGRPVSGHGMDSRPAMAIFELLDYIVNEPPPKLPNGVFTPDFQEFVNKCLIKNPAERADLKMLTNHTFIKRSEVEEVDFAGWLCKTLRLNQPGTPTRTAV
T1 sequence (P40337 whole entry, looked up): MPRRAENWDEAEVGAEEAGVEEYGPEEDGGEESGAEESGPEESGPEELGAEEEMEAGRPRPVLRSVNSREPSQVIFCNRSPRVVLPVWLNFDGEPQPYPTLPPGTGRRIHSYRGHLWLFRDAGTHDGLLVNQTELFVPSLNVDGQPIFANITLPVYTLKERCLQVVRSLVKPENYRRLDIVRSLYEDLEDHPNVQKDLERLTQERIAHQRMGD
T1 sequence (Q02750 whole entry, looked up): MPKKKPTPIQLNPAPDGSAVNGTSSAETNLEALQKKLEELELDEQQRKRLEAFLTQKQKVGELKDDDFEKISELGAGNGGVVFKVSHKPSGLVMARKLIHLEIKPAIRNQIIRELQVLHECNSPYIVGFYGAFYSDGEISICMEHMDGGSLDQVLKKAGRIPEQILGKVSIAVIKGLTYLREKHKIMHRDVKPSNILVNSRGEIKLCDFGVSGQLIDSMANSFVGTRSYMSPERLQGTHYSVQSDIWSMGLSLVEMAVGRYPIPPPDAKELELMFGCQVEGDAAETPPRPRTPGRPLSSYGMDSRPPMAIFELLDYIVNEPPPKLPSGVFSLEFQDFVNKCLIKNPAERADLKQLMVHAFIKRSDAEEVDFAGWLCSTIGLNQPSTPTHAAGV

[2] = biological target: T2, von Hippel-Lindau disease tumor suppressor/Dual specificity mitogen-activated protein kinase kinase 2 (Homo sapiens, UniProt P36507+P40337, V600E); test: (§1) Protac activity against VHL/MEK2 in human UACC257 cells harboring BRAF V600E variant assessed as degradation of MEK2 after 24 hrs by Western blot analysis; type: cell-based
T2 sequence (P36507 whole entry, looked up, stated change not applied): as the sequence (P36507 whole entry, looked up) above
T2 sequence (P40337 whole entry, looked up, stated change not applied): as the sequence (P40337 whole entry, looked up) above

[3] = biological target: T3, von Hippel-Lindau disease tumor suppressor/Dual specificity mitogen-activated protein kinase kinase 2 (Homo sapiens) (UniProt P36507+P40337); test: as §1; type: cell-based
T3 sequence (P36507 whole entry, looked up): as the sequence (P36507 whole entry, looked up) above
T3 sequence (P40337 whole entry, looked up): as the sequence (P40337 whole entry, looked up) above

[4] = biological target: T3, von Hippel-Lindau disease tumor suppressor/Dual specificity mitogen-activated protein kinase kinase 2 (Homo sapiens); test: Protac activity against VHL/MEK2 in human SK-MEL-28 cells harboring with BRAF V600E variant assessed as degradation of MEK2 by measuring reduction in MEK2 protein level at 0.1 to 0.3 uM after 2 hrs by Western blot analysis; type: cell-based
[5] = biological target: T4, von Hippel-Lindau disease tumor suppressor/Dual specificity mitogen-activated protein kinase kinase 1 (Homo sapiens) (UniProt Q02750+P40337); test: Protac activity against VHL/MEK1 in human SK-MEL-28 cells harboring with BRAF V600E variant assessed as degradation of MEK1 by measuring MEK1 protein level at 0.3 uM pretreated with NEDD8-activating enzyme inhibitor, MLN4924 for 2 hrs followed by incubation with compound for 10 hrs by Western blot analysis; type: cell-based
T4 sequence (P40337 whole entry, looked up): as above
T4 sequence (Q02750 whole entry, looked up): as the sequence (Q02750 whole entry, looked up) above

[6] = biological target: T3, von Hippel-Lindau disease tumor suppressor/Dual specificity mitogen-activated protein kinase kinase 2 (Homo sapiens); test: Protac activity against VHL/MEK2 in human HT-29 cells harboring with BRAF V600E variant assessed as degradation of MEK2 by measuring MEK2 protein level at 0.3 uM pretreated with proteasome inhibitor, MG-132 for 2 hrs followed by incubation with compound for 10 hrs by Western blot analysis; type: cell-based
[7] = biological target: T1, von Hippel-Lindau disease tumor suppressor/Dual specificity mitogen-activated protein kinase kinase 2/Dual specificity mitogen-activated protein kinase kinase 1 (Homo sapiens); test: Protac activity against VHL/MEK1/2 in human SK-MEL-28 cells harboring with BRAF V600E variant assessed as reduction in phosphorylation of MEK at S218/222 residues after 24 hrs by Western blot analysis; type: cell-based
[8] = biological target: Dual specificity mitogen-activated protein kinase kinase 2 (Homo sapiens, UniProt P36507); test: Inhibition of recombinant full length human His-tagged MEK2 expressed in baculovirus expression system using ERK K52R dead variant as substrate preincubated for 20 mins followed by incubation with 33P-ATP for 2 hrs by hotspot kinase assay
Chain of Dual specificity mitogen-activated protein kinase kinase 2 (P36507 whole entry): as the sequence (P36507 whole entry, looked up) above

[9] = biological target: T4, von Hippel-Lindau disease tumor suppressor/Dual specificity mitogen-activated protein kinase kinase 1 (Homo sapiens); test: Protac activity against VHL/MEK1 in human SK-MEL-28 cells harboring with BRAF V600E variant assessed as degradation of MEK1 by measuring reduction in MEK1 protein level at 0.1 to 0.3 uM after 2 hrs by Western blot analysis; type: cell-based
[10] = biological target: T3, von Hippel-Lindau disease tumor suppressor/Dual specificity mitogen-activated protein kinase kinase 2 (Homo sapiens); test: Protac activity against VHL/MEK2 in human HT-29 cells harboring with BRAF V600E variant assessed as degradation of MEK2 at 3 to 5 uM after 24 hrs by Western blot analysis; type: cell-based
[11] = biological target: T3, von Hippel-Lindau disease tumor suppressor/Dual specificity mitogen-activated protein kinase kinase 2 (Homo sapiens); test: Protac activity against VHL/MEK2 in human HT-29 cells harboring with BRAF V600E variant assessed as degradation of MEK2 by measuring MEK2 protein level at 0.3 uM pretreated with MEK1/2 inhibitor, PD0325901 for 2 hrs followed by incubation with compound for 10 hrs by Western blot analysis; type: cell-based
[12] = biological target: T4, von Hippel-Lindau disease tumor suppressor/Dual specificity mitogen-activated protein kinase kinase 1 (Homo sapiens); test: Protac activity against VHL/MEK1 in human HT-29 cells harboring with BRAF V600E variant assessed as degradation of MEK1 by measuring MEK1 protein level at 0.3 uM pretreated with VHL ligand, VH 032 for 2 hrs followed by incubation with compound for 10 hrs by Western blot analysis; type: cell-based
[13] = biological target: T4, von Hippel-Lindau disease tumor suppressor/Dual specificity mitogen-activated protein kinase kinase 1 (Homo sapiens); test: Protac activity against VHL/MEK1 in human HT-29 cells harboring with BRAF V600E variant assessed as degradation of MEK1 by measuring reduction in MEK1 protein level at 0.3 uM after 4 hrs by Western blot analysis relative to control; type: cell-based; parameters: scale not given: the % may be the effect or the level left
[14] = biological target: T1, von Hippel-Lindau disease tumor suppressor/Dual specificity mitogen-activated protein kinase kinase 2/Dual specificity mitogen-activated protein kinase kinase 1 (Homo sapiens); test: Protac activity against VHL/MEK1/2 in human SK-MEL-28 cells harboring with BRAF V600E variant assessed as phosphorylation of ERK at T202/Y204 residues at 0.3 uM pretreated with MEK1/2 inhibitor, PD0325901 for 2 hrs followed by incubation with compound for 10 hrs by Western blot analysis; type: cell-based
[15] = biological target: T4, von Hippel-Lindau disease tumor suppressor/Dual specificity mitogen-activated protein kinase kinase 1 (Homo sapiens); test: Protac activity against VHL/MEK1 in human HT-29 cells harboring with BRAF V600E variant assessed as degradation of MEK1 by measuring reduction in MEK1 protein level at 0.3 uM after 8 hrs by Western blot analysis relative to control; type: cell-based; parameters: scale not given: the % may be the effect or the level left
COLO 205 = test: Antiproliferative activity against human COLO205 cells assessed as reduction in cell growth after 3 days by WST8 assay; type: functional
SK-MEL-28 = test: Antiproliferative activity against human SK-MEL-28 cells assessed as reduction in cell growth after 3 days by MTT assay; type: functional
[16] = Maximum drug concentration in Swiss albino mouse plasma at 50 mg/kg, ip measured after 0.5 hrs by LC-MS/MS analysis; type: ADME, organism-based; parameters: dose 50 mg/kg, route intraperitoneal
[17] = biological target: T3, von Hippel-Lindau disease tumor suppressor/Dual specificity mitogen-activated protein kinase kinase 2 (Homo sapiens); test: Protac activity against VHL/MEK2 in human HT-29 cells harboring with BRAF V600E variant assessed as degradation of MEK2 by measuring reduction in MEK2 protein level at 0.1 uM after 10 hrs by LC-MS based Volcano plot analysis; type: cell-based
[18] = biological target: T1, von Hippel-Lindau disease tumor suppressor/Dual specificity mitogen-activated protein kinase kinase 2/Dual specificity mitogen-activated protein kinase kinase 1 (Homo sapiens); test: Protac activity against VHL/MEK1/2 in human SK-MEL-28 cells harboring with BRAF V600E variant assessed as phosphorylation of MEK at S218/222 residues at 0.3 uM pretreated with proteasome inhibitor, MG-132 for 2 hrs followed by incubation with compound for 10 hrs by Western blot analysis; type: cell-based
[19] = biological target: T2, von Hippel-Lindau disease tumor suppressor/Dual specificity mitogen-activated protein kinase kinase 2; test: (§2) Protac activity against VHL/MEK2 in human SK-MEL-28 cells harboring BRAF V600E variant assessed as degradation of MEK2 after 24 hrs by Western blot analysis; type: cell-based
[20] = biological target: T3, von Hippel-Lindau disease tumor suppressor/Dual specificity mitogen-activated protein kinase kinase 2 (Homo sapiens); test: as §2; type: cell-based
[21] = Ratio of Plasma concentration in Swiss albino mouse at 50 mg/kg, ip measured after 8 hrs to GI50 for antiproliferative activity against human HT-29 cells; type: organism-based; details: in vivo
[22] = biological target: T5, von Hippel-Lindau disease tumor suppressor/Dual specificity mitogen-activated protein kinase kinase 1 (Homo sapiens, UniProt Q02750+P40337, V600E); test: (§3) Protac activity against VHL/MEK1 in human SK-MEL-28 cells harboring BRAF V600E variant assessed as degradation of MEK1 after 24 hrs by Western blot analysis; type: cell-based
T5 sequence (P40337 whole entry, looked up, stated change not applied): as the sequence (P40337 whole entry, looked up) above
T5 sequence (Q02750 whole entry, looked up, stated change not applied): as the sequence (Q02750 whole entry, looked up) above

[23] = biological target: T4, von Hippel-Lindau disease tumor suppressor/Dual specificity mitogen-activated protein kinase kinase 1 (Homo sapiens); test: as §3; type: cell-based
[24] = biological target: T3, von Hippel-Lindau disease tumor suppressor/Dual specificity mitogen-activated protein kinase kinase 2 (Homo sapiens); test: Protac activity against VHL/MEK2 in human SK-MEL-28 cells harboring with BRAF V600E variant assessed as degradation of MEK2 by measuring MEK2 protein level at 0.3 uM pretreated with VHL ligand, VH 032 for 2 hrs followed by incubation with compound for 10 hrs by Western blot analysis; type: cell-based
[25] = biological target: T5, von Hippel-Lindau disease tumor suppressor/Dual specificity mitogen-activated protein kinase kinase 1; test: (§4) Protac activity against VHL/MEK1 in human COLO205 cells harboring BRAF V600E variant assessed as degradation of MEK1 after 24 hrs by Western blot analysis; type: cell-based
[26] = biological target: T4, von Hippel-Lindau disease tumor suppressor/Dual specificity mitogen-activated protein kinase kinase 1 (Homo sapiens); test: as §4; type: cell-based

With `Cc1ncsc1-c1ccc([C@H](C)NC(=O)[C@@H]2C[C@@H](O)CN2C(=O)[C@@H](NC(=O)CCCCCCCCCCNCCCONC(=O)c2ccc(F)c(F)c2Nc2ccc(I)cc2F)C(C)(C)C)cc1` the Activity [1] was “inactive”, the DC50 [2] was 27 nM and the Activity [3] was “Dose-dependent effect”. For the same compound, the Activity [4] was “Active”, the Activity [5] was “inactive” and the Activity [6] was “inactive”. The Activity [7] was “Dose-dependent effect”, the IC50 [8] was 590 nM and the Activity [9] was “Active”. For the same compound, the Activity [10] was “Active”, the Activity [11] was “inactive” and the Activity [12] was “inactive”. For the same compound, the Activity [13] was greater than 50%, the Activity [14] was “inactive” and the Activity [15] was greater than 80%. For the same compound, the “growth inhibition (GI)” value (COLO 205) was “Dose-dependent effect”, the GI50 (COLO 205; COLO 205, 72 h) was 30 to 200 nM and the “growth inhibition (GI)” value (SK-MEL-28) was “Dose-dependent effect”. The GI50 (SK-MEL-28; SK-MEL-28, 72 h) was 83 nM, the Cmax [16] was 1400 nM and the Activity [17] was “Active”. The Activity [18] was “inactive”, the DC50 [19] was 9.3 nM and the Activity [20] was “Dose-dependent effect”. The Ratio [21] was 3 to 20, the DC50 [22] was 31 nM and the Activity [23] was “Dose-dependent effect”. The Activity [24] was “inactive”, the DC50 [25] was 18 nM and the Activity [26] was “Dose-dependent effect”.
